Reference: the NIST ThermoML archive (doi:10.1021/je900966r)

Tests used:
[1] = mn = molality of the nth substance listed, in mol/kg; conditions: 101 kPa, Liquid
[2] = refractive index (Na D-line) (dimensionless); mn = molality of the nth substance listed, in mol/kg; conditions: 298.15 K, 101 kPa, Liquid, Standard Abbe refractometry

OC[C@@H](O)[C@@H](O)[C@H](O)[C@H](O)CO [mannitol] + O
mass density [kg/m3], [1]
Conditions	m1 = 0.1	m1 = 0.1499	m1 = 0.1999	m1 = 0.25	m1 = 0.3	m1 = 0.35	m1 = 0.4
293.15 K	1004.39	1007.5	1010.61	1013.69	1016.75	1019.74	1022.71
298.15 K	1003.21	1006.3	1009.4	1012.46	1015.48	1018.46	1021.43
303.15 K	1001.79	1004.87	1007.95	1010.98	1013.99	1016.97	1019.92
308.15 K	1000.12	1003.19	1006.23	1009.26	1012.25	1015.19	1018.13
313.15 K	998.283	1001.33	1004.36	1007.37	1010.33	1013.26	1016.18

[2]
Conditions	refractive index
m1 = 0.1	1.3358
m1 = 0.1499	1.337
m1 = 0.1999	1.3385
m1 = 0.25	1.3396
m1 = 0.3	1.341
m1 = 0.35	1.3422
m1 = 0.4	1.343

CC(C)O [propan-2-ol] + O
mass density [kg/m3], [1]
Conditions	m1 = 0.1	m1 = 0.1501	m1 = 0.1999	m1 = 0.3	m1 = 0.3998	m1 = 0.5
293.15 K	996.544	995.924	995.4	994.591	993.922	993.065
298.15 K	995.386	994.764	994.22	993.429	992.857	991.893
303.15 K	993.986	993.358	992.795	992.018	991.441	990.472
308.15 K	992.365	991.731	991.148	990.384	989.702	988.826
313.15 K	990.542	989.901	989.299	988.545	987.816	986.979

[2]
Conditions	refractive index
m1 = 0.1	1.3329
m1 = 0.1501	1.3335
m1 = 0.1999	1.3338
m1 = 0.3	1.3341
m1 = 0.3998	1.3345
m1 = 0.5	1.335

CCCO [propan-1-ol] + O
mass density [kg/m3], [1]
Conditions	m1 = 0.1001	m1 = 0.15	m1 = 0.2	m1 = 0.3	m1 = 0.4	m1 = 0.5
293.15 K	996.609	996.479	996.336	995.903	994.27	993.364
298.15 K	995.441	995.293	995.163	994.694	993.072	992.148
303.15 K	994.029	993.828	993.747	993.242	991.629	990.687
308.15 K	992.397	992.237	992.113	991.569	989.962	989.004
313.15 K	990.564	990.399	990.278	989.694	988.093	987.114

[2]
Conditions	refractive index
m1 = 0.1001	1.3331
m1 = 0.15	1.3338
m1 = 0.2	1.3341
m1 = 0.3	1.3344
m1 = 0.4	1.3349
m1 = 0.5	1.3353

O [water] + OC[C@@H](O)[C@@H](O)[C@H](O)[C@H](O)CO
Conditions	refractive index
[2], m2 = 0	1.3326
